We go through 15 molecules from patent US7056947B2, “Aza-peptide epoxides” (Georgia Tech Research Corp., priority 2002, dated 2006).

The structures appear in SMILES notation.

The target of one experiment is T1, caspase-1 (Homo sapiens, UniProt P29466, D381E).
T1 construct: His tag (N); made in house; host or cells: E. coli
T1 sequence (P29466 120-297 limits assumed): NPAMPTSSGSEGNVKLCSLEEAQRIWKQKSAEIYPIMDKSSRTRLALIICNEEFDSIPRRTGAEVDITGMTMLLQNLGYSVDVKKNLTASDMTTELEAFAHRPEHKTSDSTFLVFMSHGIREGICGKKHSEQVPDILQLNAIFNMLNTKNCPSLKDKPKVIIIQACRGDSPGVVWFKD
T1 sequence (P29466 317-404 D381E limits assumed): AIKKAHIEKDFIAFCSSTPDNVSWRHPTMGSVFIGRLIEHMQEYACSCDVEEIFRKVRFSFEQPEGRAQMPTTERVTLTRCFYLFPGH
Briefly: Caspase-1 progress curve assay. It counts as biochemical. The note with it: D381E variant, substrate Ac-YVAD-AMC, 30° C. The text has this: Caspase-1. The preparation of the autolytically stable caspase-1 variant used in these studies has been described previously. Briefly, the variant contains a mutation (D381E) which renders it resistant to autolytic inactivation, but has no detectable affect on enzyme activity as compared to the naturally occurring enzyme. The enzyme variant was expressed in E. coli, purified first by immobilized metal chromatography via the N-terminal N-His tag, treated with excess oxidized glutathione to stabilize the reactive thiolate, and then re-purified by size-exclusion chromatography.
Inhibition data was measured using the progress curve assay method. Serial dilutions of each compound were prepared using an initial 8-fold dilution of a DMSO stock into HGE (100 mM HEPES,20% glycerol v/v, 0.5 mM EDTA), followed by seven serial two-fold dilutions into HGE and 12.5% DMSO, thus maintaining constant DMSO through the dilution series. Ten μL of diluted stocks or of vehicle (HGE and 12.5% DMSO) were placed in triplicate onto a 96-well microtiter plate, allowing several compounds to be tested on each plate. The plate was covered to minimize evaporation, and the plate was pre-warmed to 30° C. for 20 minutes. Enzyme was diluted into 10.0 mL of assay buffer (HGE, 5 mM DTT, plus 15 μM Ac-YVAD-AMC, 2 nM approximate final enzyme concentration), and this activated reaction mixture was added to the plate at 90 μL/well. Progress of substrate hydrolysis was monitored for 900 s in a LabSystems (Needham, Mass.) Fluoroskan Ascent fluorescent plate-reader using 385 and 460 nm excitation and emission filters, respectively, and a photomultiplier gain setting of 10. Triplicate curves were averaged and fit by nonlinear regression to the equation for irreversible inactivation shown below.
[formula] where F0 was routinely fixed to zero, since fluorescence values were always adjusted to an origin of 0. The second order rate constant kon (M^−1s^−1) was obtained from the slopes by linear regression, and errors represent the standard deviation of the regression slope.

In the next experiment the target is T2, caspase-3 (Homo sapiens, UniProt P42574).
T2 construct: made in house; host or cells: E. coli
T2 sequence (P42574 29-175 limits assumed): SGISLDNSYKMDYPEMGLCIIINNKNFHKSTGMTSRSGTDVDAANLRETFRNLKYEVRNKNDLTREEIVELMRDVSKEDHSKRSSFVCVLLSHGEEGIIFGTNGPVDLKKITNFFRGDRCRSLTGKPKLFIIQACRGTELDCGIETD
T2 sequence (P42574 176-277 limits assumed): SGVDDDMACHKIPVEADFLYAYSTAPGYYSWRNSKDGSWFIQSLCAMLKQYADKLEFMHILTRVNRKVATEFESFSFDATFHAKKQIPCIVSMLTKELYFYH
Briefly: Caspase-3 progress curve assay. The note with it: substrate Z-DEVD-AFC; NI = no inhibition. It counts as biochemical. How it is done: Caspase-3, -6, and -8. Caspase-3, -6 and -8 were expressed in E. coli and purified according to methods previously described by Stennicke and Salvesen. Assays using the fluorogenic substrate Z-DEVD-AFC (λex=400 nm, λem=505 nm) were carried out on a Molecular Devices fMax fluorescence microplate reader. Inhibition rates and equilibria were determined by the progress curve method. The standard 100 μL reaction was started by adding enzyme to a mixture of substrate (final concentration of Z-DEVD-AFC 100 μM) and various amounts of inhibitor in buffer (50 mM Hepes, 100 mM NaCl, 0.1% (w/v) CHAPS, sucrose 10% (w/v), and 10 mM DTT, at pH 7.4). The caspases were pre-activated for 10 min at 37° C. in the presence of 10 mM DTT.

As for `CC(C)[C@H](NC(=O)CCc1ccccc1)C(=O)N[C@@H](C)C(=O)NN(CC(=O)O)C(=O)[C@H]1O[C@@H]1C(=O)NCC(O)c1ccccc1` (stereo partly drawn) [23i (S,S), (2S,3S)-2-(2-Hydroxy-2-phenylethylcarbamoyl)-3-(N^2-(3-phenylpropanoylvalylalanyl)-N^1-carboxymethylhydrazinocarbonyl)oxirane], the “k2 caspase-1” value on caspase-1 was 12260 ± 19 M⁻¹ s⁻¹. Also, the “k2 caspase-3” value at caspase-3 was determined as 510 ± 100 M⁻¹ s⁻¹.
The matching figures for `CC(NC(=O)[C@H]1O[C@@H]1C(=O)N(CC(=O)O)NC(=O)[C@H](C)NC(=O)[C@@H](NC(=O)CCc1ccccc1)C(C)C)C(=O)NCc1ccccc1` (stereo partly drawn) [23j (S,S), (2S,3S)-2-(1-Benzylcarbamoylethylcarbamoyl)-3-(N^2-(3-phenylpropanoylvalylalanyl)-N^1-carboxymethylhydrazinocarbonyl)oxirane]: 13400 M⁻¹ s⁻¹ and 260 ± 25 M⁻¹ s⁻¹.
The matching figures for `CC(C)CC(NC(=O)[C@H]1O[C@@H]1C(=O)N(CC(=O)O)NC(=O)[C@H](C)NC(=O)[C@@H](NC(=O)CCc1ccccc1)C(C)C)C(N)=O` (stereo partly drawn) [23k, (2S,3S)-2-(3-Methyl-1-amido-butylcarbamoyl)-3-(N^2-(3-phenylpropanoylvalylalanyl)-N^1-carboxymethylhydrazinocarbonyl)oxirane]: 26090 ± 2562 M⁻¹ s⁻¹ and 420 ± 6 M⁻¹ s⁻¹.
For the molecule `CC(C)[C@H](NC(=O)CCc1ccccc1)C(=O)N[C@@H](C)C(=O)NN(CC(=O)O)C(=O)[C@H]1O[C@@H]1C(=O)NC(Cc1ccccc1)C(N)=O` (stereo partly drawn) [23l (S,S), (2S,3S)-2-(1-Amido-phenethylcarbamoyl)-3-(N^2-(3-phenylpropanoylvalylalanyl)-N^1-carboxymethylhydrazinocarbonyl)oxirane], the “k2 caspase-1” value at caspase-1 stood at 32740 ± 9937 M⁻¹ s⁻¹. Also, at caspase-3, the “k2 caspase-3” value was 625 ± 160 M⁻¹ s⁻¹.
The matching figures for `CC(C)[C@H](NC(=O)CCc1ccccc1)C(=O)N[C@@H](C)C(=O)NN(CC(=O)O)C(=O)[C@H]1O[C@@H]1C(=O)NC(Cc1ccc(O)cc1)C(N)=O` (stereo partly drawn) [23m, (2S,3S)-2-(2-Amido-phenyl(4-hydroxy)ethylcarbamoyl)-3-(N^2-(3-phenylpropanoylvalylalanyl)-N^1-carboxymethylhydrazinocarbonyl)oxirane]: 3245 ± 2330 M⁻¹ s⁻¹ and 87 ± 4 M⁻¹ s⁻¹.
The matching figures for `CCOC(=O)[C@H]1O[C@@H]1C(=O)N(CC(=O)O)NC(=O)[C@@H](NC(=O)[C@H](CCC(=O)O)NC(=O)OCc1ccccc1)C(C)C` [24c, (2S,3S)-3-(N^2-(N-Benzyloxycarbonylglutamylvalyl)-N^1-carboxymethylhydrazinocarbonyl)oxirane-2-carboxylic Acid Ethyl Ester]: 58500 M⁻¹ s⁻¹ and 50500 ± 2075 M⁻¹ s⁻¹.
The matching figures for `CC(C)[C@H](NC(=O)[C@H](CCC(=O)O)NC(=O)OCc1ccccc1)C(=O)NN(CC(=O)O)C(=O)[C@H]1O[C@@H]1C(=O)NCCc1ccccc1` [24h, (2S,3S)-2-(2-Phenethylcarbamoyl)-3-(N^2-(N-benzyloxycarbonylglutamylvalyl)-N^1-carboxymethylhydrazinocarbonyl)oxirane]: 41070 ± 440 M⁻¹ s⁻¹ and 27330 ± 5430 M⁻¹ s⁻¹.
`CCOC(=O)[C@@H]1O[C@H]1C(=O)N(CC(=O)O)NC(=O)[C@@H](NC(=O)[C@H](CCC(=O)O)NC(=O)[C@H](CC(=O)O)NC(=O)OCc1ccccc1)C(C)C` [25c (R,R), (2R,3R)-3-(N^2-(N-Benzyloxycarbonylaspartylglutamylvalyl)-N^1-carboxymethylhydrazinocarbonyl)oxirane-2-carboxylic Acid Ethyl Ester]: the “k2 caspase-1” value on caspase-1 was found to be 4320 ± 830 M⁻¹ s⁻¹. The “k2 caspase-3” value at caspase-3 amounted to 464420 ± 186300 M⁻¹ s⁻¹.
The matching figures for `CCOC(=O)[C@H]1O[C@@H]1C(=O)N(CC(=O)O)NC(=O)[C@@H](NC(=O)[C@H](CCC(=O)O)NC(=O)[C@H](CC(=O)O)NC(=O)OCc1ccccc1)C(C)C` [25c (S,S), (2S,3S)-3-(N^2-(N-Benzyloxycarbonylaspartylglutamylvalyl)-N^1-carboxymethylhydrazinocarbonyl)oxirane-2-carboxylic Acid Ethyl Ester]: 11840 ± 1214 M⁻¹ s⁻¹ and 1074440 ± 154710 M⁻¹ s⁻¹.
The matching figures for `CC(C)[C@H](NC(=O)[C@H](CCC(=O)O)NC(=O)[C@H](CC(=O)O)NC(=O)OCc1ccccc1)C(=O)NN(CC(=O)O)C(=O)[C@H]1O[C@@H]1C(=O)OCc1ccccc1` [25d, (2S,3S)-3-(N^2-(N-Benzyloxycarbonylaspartylglutamylvalyl)-N^1-carboxymethylhydrazinocarbonyl)oxirane-2-carboxylic Acid Benzyl Ester]: 54690 ± 15913 M⁻¹ s⁻¹ and 1915200 ± 209200 M⁻¹ s⁻¹.
The matching figures for `CC(C)[C@H](NC(=O)[C@H](CCC(=O)O)NC(=O)[C@H](CC(=O)O)NC(=O)OCc1ccccc1)C(=O)NN(CC(=O)O)C(=O)[C@H]1O[C@@H]1C(=O)NCc1ccccc1` [25g, (2S,3S)-2-(2-Benzylcarbamoyl)-3-(N^2-(N-benzyloxycarbonylaspartylglutamylvalyl)-N^1-carboxymethylhydrazinocarbonyl)oxirane]: 25420 ± 4013 M⁻¹ s⁻¹ and 1097820 ± 94860 M⁻¹ s⁻¹.
`CC(C)[C@H](NC(=O)[C@H](CCC(=O)O)NC(=O)[C@H](CC(=O)O)NC(=O)OCc1ccccc1)C(=O)NN(CC(=O)O)C(=O)[C@H]1O[C@@H]1C(=O)N[C@@H](Cc1ccccc1)C(N)=O` [25l, Cbz-Asp-Glu-Val-AAsp-(S,S)-EP-CO-Phe-NH2]: the “k2 caspase-1” value at caspase-1 amounted to 9250 ± 2835 M⁻¹ s⁻¹. In addition, the “k2 caspase-3” value on caspase-3 turned out to be 722180 ± 340860 M⁻¹ s⁻¹.
The matching figures for `CC(C)C[C@H](NC(=O)OCc1ccccc1)C(=O)N[C@@H](CCC(=O)O)C(=O)N[C@H](C(=O)NN(CC(=O)O)C(=O)[C@H]1O[C@@H]1C(=O)OCc1ccccc1)[C@@H](C)O` [26d, (2S,3S)-3-(N^2-(N-Benzyloxycarbonylleucylglutamylthreonyl)-N^1-carboxymethylhydrazinocarbonyl)oxirane-2-carboxylic Acid Benzyl Ester]: 43500 ± 2150 M⁻¹ s⁻¹ and 3520 ± 600 M⁻¹ s⁻¹.
As to `CCOC(=O)[C@@H]1O[C@H]1C(=O)N(CC(=O)O)NC(=O)[C@@H](NC(=O)[C@H](CCC(=O)O)NC(=O)[C@@H](NC(=O)OCc1ccccc1)[C@@H](C)CC)[C@@H](C)O` [27c (R,R), (2R,3R)-3-(N^2-(N-Benzyloxycarbonylisoleucylglutamylthreonyl)-N^1-carboxymethylhydrazinocarbonyl)oxirane-2-carboxylic Acid Ethyl Ester], the “k2 caspase-1” value on caspase-1 amounted to 13260 ± 3684 M⁻¹ s⁻¹. Besides, the “k2 caspase-3” value on caspase-3 amounted to 2630 ± 365 M⁻¹ s⁻¹.
The matching figures for `CCOC(=O)[C@H]1O[C@@H]1C(=O)N(CC(=O)O)NC(=O)[C@@H](NC(=O)[C@H](CCC(=O)O)NC(=O)[C@@H](NC(=O)OCc1ccccc1)[C@@H](C)CC)[C@@H](C)O` [27c (S,S), (2S,3S)-3-(N^2-(N-Benzyloxycarbonylisoleucylglutamylthreonyl)-N^1-carboxymethylhydrazinocarbonyl)oxirane-2-carboxylic Acid Ethyl Ester]: 12372 M⁻¹ s⁻¹ and 4080 ± 360 M⁻¹ s⁻¹.
